Patent US8841302B2, “HCV inhibitor and therapeutic agent combinations” (PTC Therapeutics, Inc., priority 2009, dated 2014)

System: HCV replicon RNA in replicon cells
Assay: Replicon RNA response to antiviral agent(s), real time PCR (Taqman assay)
Type: cell-based
Details: replicon cells treated 3 days
Method: Replicon cells were seeded at ˜5000 cells/well in 96-well collagen I-coated Biocoat plates (Becton Dickinson). At 24 hrs post-seeding, a series of replicon cells were treated with a HCV protease inhibitor and a HCV inhibitor. The final concentration of DMSO was 0.5%, fetal bovine serum was 10%, and G418 (an aminoglycoside used as a selective agent) was 500 μg/mL.
To each concentration of Compound 10p, HCV inhibitor Compound 31 was titrated. After 3 days, the cells were washed with PBS and lysed in 1× Cell Lysis Buffer (Ambion cat #8721).
The replicon RNA level was measured using real time PCR (Taqman assay). The ampicon was located in NS5b. The PCR primers used were: 5B.2F, ATGGACAGGCGCCCTGA (SEQ ID NO: 1); 5B.2R, […] (SEQ ID NO: 2); the probe sequence was FAM-labeled CACGCCATGCGCTGCGG (SEQ ID NO: 3). GAPDH RNA was used as endogenous control and was amplified in the same reaction as NS5b (multiplex PCR) using primers and VIC-labeled probe recommended by the manufacturer (PE Applied Biosystem). The real-time RT-PCR reactions were run on ABI PRISM 7900HT Sequence Detection System using the following program: 48° C. for 30 min, 95° C. for 10 min, 40 cycles of 95° C. for 15 sec, 60° C. for 1 min. The ΔCT values (CT5B-CTGAPDH) were plotted against test compound concentration and fitted to the sigmoid dose response model using Graphpad PRISM software (Graphpad Software Inc.). The half maximal inhibitory concentration (IC50) is the concentration necessary to achieve ΔCT=1 over the projected baseline. The 90% maximal inhibitory concentration (IC90) is the concentration necessary to achieve ΔCT=3.2 over the baseline. Alternatively, to quantitate the absolute amount of replicon RNA, a standard curve was established by including serially diluted T7 transcripts of replicon RNA in the Taqman assay. All Taqman reagents were from PE Applied Biosystem.

| SMILES | relative inhibition (logarithmic scale) of replicon RNA level (Compound 31 0.045 μM in combination with Cpd 10p 0.19 μM) | relative inhibition (logarithmic scale) of replicon RNA level (Compound 31 0.045 μM in combination with Cpd 10p 1.5 μM) | relative inhibition (logarithmic scale) of replicon RNA level (Compound 31 0.405 μM in combination with Cpd 10p 0.19 μM) | relative inhibition (logarithmic scale) of replicon RNA level (Compound 31 0.405 μM in combination with Cpd 10p 1.5 μM) | relative inhibition (logarithmic scale) of replicon RNA level (Cpd 10p 0.19 μM alone (Compound 31 0 μM)) | relative inhibition (logarithmic scale) of replicon RNA level (Cpd 10p 1.5 μM alone (Compound 31 0 μM)) |
| --- | --- | --- | --- | --- | --- | --- |
| N#Cc1c(-c2ccc(S(=O)(=O)NC(CF)CF)cn2)n(C2CCC2)c2cc(OC(F)F)ccc12 [Compound 31, 6-[3-cyano-1-cyclobutyl-6-(difluoromethoxy)-1H-indol-2-yl]-N-(1,3-difluoropropan-2-yl)pyridine-3-sulfonamide] | −1.16 | −1.72 | −1.73 | −2.02 |  |  |
| CC(C)(C)NC(=O)N[C@H](C(=O)N1C[C@H]2[C@@H]([C@H]1C(=O)NC(CC1CCC1)C(=O)C(N)=O)C2(C)C)C(C)(C)C (stereo partly drawn) [Cpd 10p, (1R,2S,5S)-N-(4-amino-1-cyclobutyl-3,4-dioxobutan-2-yl)-3-((S)-2-(3-tert-butylureido)-3,3-dimethylbutanoyl)-6,6-dimethyl-3-azabicyclo[3.1.0]hexane-2-carboxamide, reference compound] |  |  |  |  | −0.11 | −1.52 |
